Experimental data reported in publication PMC11864979, “First-in-class ultralong-target-residence-time p38α inhibitors as a mitosis-targeted therapy for colorectal cancer” (Nature Cancer, 2025).
Like-named read-outs stand apart in the source and are kept apart here.

Experiments:
Experiment in all cases: selectivity profiling in a panel of 340 wild-type kinases (Reaction Biology Europe)
Type in all cases: binding
340 wild-type kinases [1] = biological target: T1, 340 wild-type kinases (Homo sapiens, UniProt P37173)
T1 construct: purchased Reaction Biology Europe

340 wild-type kinases [2] = biological target: T2, 340 wild-type kinases (Homo sapiens, UniProt Q9UBE8)
T2 construct: purchased Reaction Biology Europe
T2 sequence (Q9UBE8 1-527): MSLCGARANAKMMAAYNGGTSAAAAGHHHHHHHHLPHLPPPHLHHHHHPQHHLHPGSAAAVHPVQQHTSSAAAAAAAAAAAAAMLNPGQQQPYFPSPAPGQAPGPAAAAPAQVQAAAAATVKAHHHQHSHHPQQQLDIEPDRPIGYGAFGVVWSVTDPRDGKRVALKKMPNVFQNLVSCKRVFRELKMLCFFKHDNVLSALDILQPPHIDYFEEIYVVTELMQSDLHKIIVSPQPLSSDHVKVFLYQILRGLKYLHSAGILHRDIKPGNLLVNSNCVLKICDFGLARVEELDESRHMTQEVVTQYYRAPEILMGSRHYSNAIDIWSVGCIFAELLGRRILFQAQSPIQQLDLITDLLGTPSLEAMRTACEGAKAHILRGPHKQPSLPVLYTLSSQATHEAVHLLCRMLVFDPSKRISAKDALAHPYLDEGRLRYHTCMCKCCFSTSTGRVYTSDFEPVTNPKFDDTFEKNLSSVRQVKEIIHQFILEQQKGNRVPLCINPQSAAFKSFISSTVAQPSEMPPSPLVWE

340 wild-type kinases [3] = biological target: T3, 340 wild-type kinases (Homo sapiens, UniProt P51451)
T3 construct: purchased Reaction Biology Europe

340 wild-type kinases [4] = biological target: T4, 340 wild-type kinases (Homo sapiens, UniProt Q96PY6)
T4 construct: purchased Reaction Biology Europe
T4 sequence (Q96PY6 1-1258): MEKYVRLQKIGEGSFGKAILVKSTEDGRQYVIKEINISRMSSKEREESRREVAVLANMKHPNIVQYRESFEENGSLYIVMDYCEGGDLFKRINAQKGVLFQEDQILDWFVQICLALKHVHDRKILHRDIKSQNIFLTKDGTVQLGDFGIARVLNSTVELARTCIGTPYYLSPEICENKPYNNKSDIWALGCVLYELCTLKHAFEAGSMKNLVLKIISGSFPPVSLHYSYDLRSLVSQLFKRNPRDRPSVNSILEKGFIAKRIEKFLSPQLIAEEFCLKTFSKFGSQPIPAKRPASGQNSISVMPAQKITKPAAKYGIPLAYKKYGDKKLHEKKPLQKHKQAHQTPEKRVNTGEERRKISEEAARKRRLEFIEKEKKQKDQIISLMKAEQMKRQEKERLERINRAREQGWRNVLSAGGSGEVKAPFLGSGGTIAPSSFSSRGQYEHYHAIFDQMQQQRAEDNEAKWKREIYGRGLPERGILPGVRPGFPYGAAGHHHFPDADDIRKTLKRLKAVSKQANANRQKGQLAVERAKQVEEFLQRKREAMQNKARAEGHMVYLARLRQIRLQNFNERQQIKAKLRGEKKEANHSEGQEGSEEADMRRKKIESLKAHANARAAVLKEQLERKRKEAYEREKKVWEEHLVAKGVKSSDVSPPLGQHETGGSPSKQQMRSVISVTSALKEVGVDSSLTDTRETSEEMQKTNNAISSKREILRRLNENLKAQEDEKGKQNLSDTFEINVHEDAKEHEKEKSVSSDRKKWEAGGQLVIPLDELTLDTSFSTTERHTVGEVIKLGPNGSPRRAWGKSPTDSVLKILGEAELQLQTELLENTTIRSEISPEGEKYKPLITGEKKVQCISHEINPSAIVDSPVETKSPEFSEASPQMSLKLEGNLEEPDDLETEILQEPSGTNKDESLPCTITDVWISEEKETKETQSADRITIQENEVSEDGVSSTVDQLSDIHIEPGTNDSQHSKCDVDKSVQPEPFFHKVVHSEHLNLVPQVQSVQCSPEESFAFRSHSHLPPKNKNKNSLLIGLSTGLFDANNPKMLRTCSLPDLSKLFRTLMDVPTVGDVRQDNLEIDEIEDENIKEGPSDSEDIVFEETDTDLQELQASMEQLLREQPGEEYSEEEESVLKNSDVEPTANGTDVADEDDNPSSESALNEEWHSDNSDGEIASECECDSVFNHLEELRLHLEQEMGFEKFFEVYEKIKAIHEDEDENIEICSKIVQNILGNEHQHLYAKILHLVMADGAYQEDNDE

340 wild-type kinases [5] = biological target: T5, 340 wild-type kinases (Homo sapiens, UniProt Q15349)
T5 construct: purchased Reaction Biology Europe
T5 sequence (Q15349 whole entry): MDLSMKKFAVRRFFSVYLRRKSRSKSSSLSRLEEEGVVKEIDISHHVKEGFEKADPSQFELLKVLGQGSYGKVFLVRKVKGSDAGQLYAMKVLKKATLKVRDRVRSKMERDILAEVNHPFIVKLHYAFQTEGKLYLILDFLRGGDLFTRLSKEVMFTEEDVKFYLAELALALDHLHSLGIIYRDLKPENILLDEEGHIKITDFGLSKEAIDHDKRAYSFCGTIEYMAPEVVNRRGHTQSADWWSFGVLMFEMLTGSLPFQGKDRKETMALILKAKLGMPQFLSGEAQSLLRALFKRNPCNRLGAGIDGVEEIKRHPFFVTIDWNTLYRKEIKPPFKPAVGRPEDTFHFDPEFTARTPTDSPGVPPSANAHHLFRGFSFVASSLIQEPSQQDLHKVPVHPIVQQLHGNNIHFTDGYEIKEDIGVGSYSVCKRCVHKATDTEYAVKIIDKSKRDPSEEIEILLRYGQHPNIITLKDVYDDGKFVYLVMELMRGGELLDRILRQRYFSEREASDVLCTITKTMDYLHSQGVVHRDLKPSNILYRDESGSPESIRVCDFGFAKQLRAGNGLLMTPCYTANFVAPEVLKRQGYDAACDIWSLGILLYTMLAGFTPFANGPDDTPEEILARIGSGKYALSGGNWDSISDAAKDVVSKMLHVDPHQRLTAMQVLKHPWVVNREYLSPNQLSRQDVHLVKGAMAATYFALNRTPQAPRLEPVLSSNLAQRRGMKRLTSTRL

T3 sequence (P51451 whole entry): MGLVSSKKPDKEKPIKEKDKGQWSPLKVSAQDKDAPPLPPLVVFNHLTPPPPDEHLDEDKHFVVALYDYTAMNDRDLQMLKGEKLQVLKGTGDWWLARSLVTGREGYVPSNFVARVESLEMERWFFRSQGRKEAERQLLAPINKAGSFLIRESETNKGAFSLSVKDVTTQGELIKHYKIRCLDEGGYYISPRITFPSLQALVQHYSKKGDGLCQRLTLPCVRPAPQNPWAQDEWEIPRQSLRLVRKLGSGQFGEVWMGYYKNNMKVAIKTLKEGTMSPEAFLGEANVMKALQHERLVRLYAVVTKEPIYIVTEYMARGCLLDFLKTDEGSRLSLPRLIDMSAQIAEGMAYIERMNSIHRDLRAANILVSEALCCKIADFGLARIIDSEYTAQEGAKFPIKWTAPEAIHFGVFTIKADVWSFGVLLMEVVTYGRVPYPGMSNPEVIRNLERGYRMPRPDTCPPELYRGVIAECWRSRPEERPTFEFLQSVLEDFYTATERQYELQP
T1 sequence (P37173 23-567): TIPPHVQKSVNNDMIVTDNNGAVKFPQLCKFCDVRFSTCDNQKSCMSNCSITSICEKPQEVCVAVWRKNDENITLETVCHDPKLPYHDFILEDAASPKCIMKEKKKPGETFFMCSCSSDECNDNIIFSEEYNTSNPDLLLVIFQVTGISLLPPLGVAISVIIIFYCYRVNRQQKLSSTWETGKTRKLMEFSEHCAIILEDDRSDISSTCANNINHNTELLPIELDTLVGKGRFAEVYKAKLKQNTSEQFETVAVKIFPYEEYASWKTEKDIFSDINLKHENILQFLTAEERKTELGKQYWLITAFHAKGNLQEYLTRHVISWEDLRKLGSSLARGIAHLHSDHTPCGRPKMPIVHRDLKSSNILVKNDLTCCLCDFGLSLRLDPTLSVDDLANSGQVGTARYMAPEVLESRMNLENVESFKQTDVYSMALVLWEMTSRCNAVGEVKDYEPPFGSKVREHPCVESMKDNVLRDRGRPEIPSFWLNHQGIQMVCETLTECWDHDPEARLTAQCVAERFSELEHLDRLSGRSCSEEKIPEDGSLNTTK

SMILES: CNC(=O)c1ccc2c(c1)C(=O)c1ccc(Nc3ccc(F)c(NC(=O)C4CC4)c3)cc1CC2 [Compound 2015]
- remaining activity at 0.2 µM (340 wild-type kinases [1]; 0.2 µM 2015, read-out: TGFBR2 residual activity): 78.4%
- remaining activity at 1 µM (340 wild-type kinases [1]; 1 µM 2015, read-out: TGFBR2 residual activity): 76.8%
- remaining activity at 0.2 µM (340 wild-type kinases [1]; TGFBR2, 0.2 µM, read-out: residual activity): 78.3%
- remaining activity at 1 µM (340 wild-type kinases [1]; TGFBR2, 1 µM, read-out: residual activity): 76.8%
- remaining activity at 0.2 µM (340 wild-type kinases [2]; 0.2 µM 2015, read-out: NLK residual activity): 92%
- remaining activity at 1 µM (340 wild-type kinases [2]; 1 µM 2015, read-out: NLK residual activity): 85.5%
- remaining activity at 0.2 µM (340 wild-type kinases [2]; NLK, 0.2 µM, read-out: residual activity): 92%
- remaining activity at 1 µM (340 wild-type kinases [2]; NLK, 1 µM, read-out: residual activity): 85.5%
- remaining activity at 0.2 µM (340 wild-type kinases [3]; 0.2 µM 2015, read-out: BLK residual activity): 107%
- remaining activity at 1 µM (340 wild-type kinases [3]; 1 µM 2015, read-out: BLK residual activity): 104%
- remaining activity at 0.2 µM (340 wild-type kinases [3]; BLK, 0.2 µM, read-out: residual activity): 107%
- remaining activity at 1 µM (340 wild-type kinases [3]; BLK, 1 µM, read-out: residual activity): 104%
- remaining activity at 1 µM (340 wild-type kinases [4]; 1 µM 2015, read-out: NEK1 residual activity): 81.3%
- remaining activity at 1 µM (340 wild-type kinases [4]; NEK1, 1 µM, read-out: residual activity): 81.3%
- remaining activity at 0.2 µM (340 wild-type kinases [4]; read-out: NEK1 residual activity): 86.5%
- remaining activity at 0.2 µM (340 wild-type kinases [4]; read-out: residual activity): 86.5%
- remaining activity at 0.2 µM (340 wild-type kinases [5]; 0.2 µM 2015, read-out: RPS6KA2 residual activity): 84.7%
- remaining activity at 1 µM (340 wild-type kinases [5]; 1 µM 2015, read-out: RPS6KA2 residual activity): 91%
- remaining activity at 0.2 µM (340 wild-type kinases [5]; RPS6KA2, 0.2 µM, read-out: residual activity): 84.7%
- remaining activity at 1 µM (340 wild-type kinases [5]; RPS6KA2, 1 µM, read-out: residual activity): 91%
